Measurements: patent publication US10517964B2, “Optical imaging probes, optical imaging systems, methods of optical imaging, and methods of using optical imaging probes” (priority 2011, dated 2019)

Assays:
[1] = test system: C6-tk tumors (HSV1-tk reporter gene); assay: in vivo OI and PET imaging of mice bearing C6-tk and C6 tumors; details: for tumor to normal tissue (T/N) ratio: n=6
Protocol: All animal studies were carried out in compliance with federal and local institutional rules for the conduct of animal experimentation. Mice bearing two tumors (C6-tk and C6) were then used for in vivo studies. The C6-tk (left) and C6 (right) cells were injected contra-laterally in the dorsal shoulder region of each mouse (2×10^6 cells/mouse; athymic nude mice were purchased from Charles River Laboratories, n=6). Approximately 10 days later, when tumor size reached about 1-1.5 cm in diameter, small animal PET and OI were performed using the mice and the PET probe [^18F]FHBG. Images at 1 h and 2 h were obtained by both OI and PET. Results are shown by average radiance (photon/second/cm^2/str) for OI and percentage of injected dose per gram (% ID/g) for PET based on the method previously described (13). […] The strong signals in the lower part of the mouse body [FIG. 2.2 (a)] are due to the presence of the radioactivity in the bladder. […] At 2 h post-injection, with the elimination of [^18F]FHBG, only C6-tk tumors can be clearly visualized in both imaging modalities (see FIG. 2.2).

[2] = test system: C6-tk cells (C6 rat glioma stably transfected with HSV-sr39tk); assay: in vitro [18F]FHBG cell uptake, measured by OI and gamma counting; format: cell-based; details: 37° C., 15-120 min
Text: This is mainly attributed to the ability of radioactive materials to produce low energy visible photons (1.2-3.1 eV, 400-1000 nm) associated with Cerenkov or Bremsstrahlung radiation (8-11). In this research study, we further evaluated the feasibility of using OI to monitor the nuclear reporter gene/reporter probe systems. HSV1-tk and [^18F]FHBG was thus chosen as a model system in this study. The C6 rat glioma cell line stably transfected with HSV-sr39tk plasmids (C6-tk) (12) was used, and the in vitro [^18F]FHBG uptakes in C6-tk cells were measured by both an IVIS optical imaging system (Caliper) and a gamma counter (Perkin Elmer). Finally, we performed in vivo imaging studies of the reporter gene/reporter probe using both OI and PET followed by a biodistribution study.
The in vitro [^18F]FHBG cell uptake study was performed as previously described with minor modifications (12). Briefly, C6-tk cells were seeded into 12-well plates at a density of 5×10^5 cells per well 12 h prior to the experiment. The C6 cell line without transfection was used as a negative control. […] Then the radioactivity of the cell suspension was measured in a gamma counter (Packard, Meriden, Conn.). The in vitro cell uptake results were expressed as the percentage of the applied activity with decay correction [see FIG. 2.1(b)]. […]

[3] = test system: C6 cell line without transfection; assay: in vitro [18F]FHBG cell uptake, negative control cells; format: cell-based, rat; details: non transfected C6 cells, 37° C., 15-120 min
Protocol: The in vitro [^18F]FHBG cell uptake study was performed as previously described with minor modifications (12). Briefly, C6-tk cells were seeded into 12-well plates at a density of 5×10^5 cells per well 12 h prior to the experiment. The C6 cell line without transfection was used as a negative control. The cells were then incubated with [^18F]FHBG ([…], 3 μCi/well) at 37° C. for 15, 30, 60 and 120 min. Tumor cells were washed 3 times with chilled phosphate buffered saline (PBS) and harvested with 0.25% trypsin/0.02% ethylenediaminetetraacetic acid (EDTA) (Invitrogen). The cell suspensions were transferred to a 96-well flat bottom black plate (Nunc) and imaged by an IVIS 200 system (Caliper). Luminescent images were taken without a filter [see FIG. 2.1(a)]. The exposure time was 5 min. Then the radioactivity of the cell suspension was measured in a gamma counter (Packard, Meriden, Conn.). The in vitro cell uptake results were expressed as the percentage of the applied activity with decay correction [see FIG. 2.1(b)]. Experiments were performed twice with triplicate samples for each time point. […] More importantly, an excellent correlation has been obtained between OI and gamma counting results [see FIG. 2.1(c), r^2>0.95]. These findings lay the foundation for further in vivo studies to validate the feasibility of using OI for monitoring the nuclear reporter gene system.

[4] = biodistribution study by OI of organs and gamma counting; format: in vivo, mice
Protocol: To further compare the imaging results obtained from OI and PET, biodistribution studies were conducted. Mice were sacrificed and different organs were collected at 1 h post-injection of [^18F]FHBG. OI images were obtained for these radioactive organs and quantification analysis of optical images was performed using Living Image software version 3.1 [see FIG. 2.3(a)]. Meanwhile, the radioactivity of the organs was also measured using a gamma counter after weighing, and the radioactivity uptake in the tumor and normal tissues was calculated and expressed as a percentage of the injected radioactive dose per gram of tissue (% ID/g) [see FIG. 2.3(b)].
The ratio of kidney to tumor uptake of [^18F]FHBG at 1 h was also calculated to be 2.3 vs. 1.4, for gamma counting vs. OI quantification, respectively. This discrepancy could mainly originate from the diverse optical properties of different tissues, which ultimately affects light imaging and quantification. Compared with the C6-tk tumor, the kidney contains more hemoglobin that absorbs more optical photons. Moreover, unlike high energy gamma rays, the low energy photons have very weak tissue penetrability. Light sources deeper in the tissue contribute less for the total optical signals than those closer to the surface. Therefore the kidney/tumor ratio measured by OI is lower than that obtained by gamma counting. Overall, PET has a better quantitative capability than OI. However, radioactive OI can still serve as a qualitative or semiquantitative research tool for radioactive reporter probe studies. The radioactive OI signals also have a uniquely wide wavelength of emission spectrum (9). The emissions in the near infra-red range are especially favorable for OI in living subjects. In comparison with current reporter gene imaging using BLI probes, radioactive reporter probes may offer a better option for 3D OI reconstruction.

primary bladder tumor = primary bladder tumor in humans; cited from earlier work
C6-fluc tumors = assay: in vivo radioactive OI and microPET of mice bearing C6-fluc glioma
Protocol: [^18F]FDG has been widely used for imaging tumor metabolism^2,13,14, and Na^18F can accumulate in the bone^14. In this study, a group of mice (n=3) were implanted with firefly luciferase (fluc) transfected rat C6 glioma (C6-fluc). A day prior to the radioactive imaging, the mice were given with luciferin and bioluminescence OI was performed to verify the presence of tumor (FIG. 1.3a). Then [^18F]FDG was injected to the mice bearing C6-fluc glioma and imaged sequentially with IVIS Spectrum (FIG. 1.3b) and microPET (FIG. 1.3c). […] High imaging signals from bladder and brain were also observed by both modalities. But heart was hardly visible in the radioactive OI because it localizes deep inside of the mice body. After we sacrificed and open the thorax of the mice, the heart could be easily identified (FIG. 1.3d, yellow arrow). To further characterize the distribution of [^18F]FDG using radioactive OI, tumors and other normal organs and tissues were removed from the mice sacrificed and subjected to IVIS Spectrum imaging.
Quantitative analysis of both radioactive OI and microPET images was performed. The OI intensities in the tumor and the normal tissue as a function of time for [^18F]FDG was depicted in FIG. 1.3f, while the radioactivity accumulation in tumor and muscle over time was shown in FIG. 1.3g. […] Finally, regression analysis was performed for the tumor uptakes obtained from two imaging modalities, in order to further evaluate the quantitative analysis data obtained from radioactive OI. Good correlation was seen between the radioactive OI signal intensities and microPET images derived tumor uptakes (FIG. 1.3h, r^2 over 0.90 for the analyses). […]
Radioactive optical imaging: In vivo radioactive OI was also performed with an IVIS Spectrum system. […] Images were acquired and analyzed using Living Image 3.0 software (Caliper life sciences, Hopkinton, Mass.). Quantification of Radioactive OI images was corrected in accordance with radionuclides' respective physical decay properties. […]

C6 glioma tumor = assay: Cerenkov luminescence imaging with 6 mm fiber optic bundle in mice bearing C6 glioma; format: in vivo; details: n=4
Text: Typical optical endoscopy imaging system includes an endoscope (usually made out of optical fibers and/or optical lenses such as grin/rod lenses), a white light source, and a CCD camera that is connected to the computer monitor. […] The subject “S” was placed […] the field of view (FOV) of the imaging system. The input end of the OF was placed close to the subject “S”. The output end of the “OF” faced the CCD camera such that the image transmitted by the output end was imaged on to the CCD camera using a relay lens system. The optical signal was normalized to photons per second per centimeter square per steradian (p/s/cm^2/sr). Identical settings were used for both in vitro and living mouse experiments.
^18F-FDG was produced by the Radiochemistry Facility at Stanford University using standard procedures. […] A CRC-15R PET dose calibrator (Capintec Inc., Ramseb, N.J.) was used for all radioactivity measurements. […]
To further characterize the distribution of ^18F-FDG, tumors and other organs were removed from the sacrificed mice (n=4) and subjected to fiber optic imaging as mentioned above. Inset figure on top right corner of each organ in FIG. 3.6(a) represents average Cerenkov radiance detected by a 6 mm fiber optic bundle. FIG. 3.6(b) represents biodistribution of ^18F-FDG in various tissues at one hour post injection in mice as measured using optical signals from radionuclides. […]

[5] = OI, 1 h after tail vein injection

tumor uptake over time (C6-fluc tumors; from 0.5-2 h)	Compound	tracer uptake in C6-tk tumors [1, 5]	tracer uptake in control C6 tumors [1, 5]	tumor to normal tissue (T/N) ratio ([1]; OI, 1 h post-injection)	tumor to normal tissue (T/N) ratio ([1]; OI, 2 h post-injection)	tumor to normal tissue (T/N) ratio ([1]; PET, 1 h post-injection)	tumor to normal tissue (T/N) ratio ([1]; PET, 2 h post-injection)	cell uptake of [18F]FHBG [2]	cell uptake of [18F]FHBG [3]	ratio of kidney to tumor uptake ([4]; 1 h, OI quantification)	ratio of kidney to tumor uptake ([4]; 1 h, gamma counting)	organs visible by optical imaging (biodistribution) ([4]; 1 h post-injection, excised organs)	clearance route ([4]; kidney vs intestine signal, 1 h)	standard uptake value (SUV) (primary bladder tumor)	tumor localization (C6-fluc tumors; radioactive OI and microPET, 0.5-2 h p.i.)	ex vivo distribution in tumors and normal organs (C6-fluc tumors; radioactive OI of removed tissues, 2.1 h p.i.)	in vivo tracer uptake by fiber bundle signal (C6 glioma tumor; 900 μCi i.v., 90 minutes post-injection)	ex vivo tissue distribution by fiber bundle signal (C6 glioma tumor; one hour post injection)
–	Nc1nc2c(ncn2CCC(CO)C[18F])c(=O)[nH]1 (stereo not drawn) [[^18F]FHBG, 9-(4-^18F-fluoro-3-[hydroxymethyl]butyl)guanine]	C6-tk tumors can be clearly delineated	minimum tracer uptakes	2.6±0.5	5.1±1.1	43.2±8.4	143.0±14.8	rapid and high uptake	very low cell uptake	1.4	2.3	the C6-tk tumor, the kidney, and the intestine were clearly visible	mainly through urinary excretion	–	–	–	–	–
increased over time	2-deoxy-2-[^18F]fluoro-D-glucose [[^18F]FDG]	–	–	–	–	–	–	–	–	–	–	–	–	~4.5	preferentially localized and was retained in C6-fluc tumors	High activity was mainly observed from the tumor and heart tissue samples	Relatively high signals from the subcutaneous tumor and brain	High signal was mainly observed from the tumor, heart, brain, and kidney tissue samples
